Literature values, collected in patent publication US20060165671A1, “Novel nutraceutical compositions comprising epigallocatechin gallate” (priority 2002, published 2006).

Experiments:
[1] = test system: rat primary hepatocytes; details: concentrations from about 10 to about 100 μM
[2] = test system: pre-adipocyte cells; details: compared to the specific PPAR-γ agonist ciglitazone
[3] = after CoQ10 supplementation, several studies
[4] = test system: muscle and adipose cells in culture
[5] = glucose intolerant and non-insulin dependent diabetic animals
[6] = patients with type 2

Question: For `CC(C)CCCC(C)CCCC(C)CCCC(C)CC(=O)O` (stereo not drawn) [Phytanic acid, 3,7,11,15-tetramethylhexadecanoic acid], which uptake of glucose [1] is on record?
Answer: The uptake of glucose was “enhances uptake of glucose”.

Question: And the “differentiation of pre-adipocyte cells into mature adipocytes” value [2]?
Answer: The value was “only minor effects”.

Question: With `COC1=C(OC)C(=O)C(C/C=C(\C)CC/C=C(\C)CC/C=C(\C)CC/C=C(\C)CC/C=C(\C)CC/C=C(\C)CC/C=C(\C)CC/C=C(\C)CC/C=C(\C)CCC=C(C)C)=C(C)C1=O` [CoQ10, 6-Decaprenyl-2,3-dimethoxy-5-methyl-1,4-benzoquinone] as the compound, how does the LDL oxidation [3] read?
Answer: The LDL oxidation was “reduced”.

Question: Which results are given for “1,2-dithiolane-3-pentaenoic acid [Lipoic acid]”?
Answer: glucose transport [4]: stimulates glucose transport; basal and insulin-stimulated glucose uptake by skeletal muscles [5]: raised; glucose disposal [6]: improves glucose disposal
